The target in the experiment is T1, P2Y12 receptor (Homo sapiens, UniProt Q9H244).
T1 construct: expressed in transfected cells; host or cells: CHO cells (membrane preparation)
T1 sequence (Q9H244 whole entry): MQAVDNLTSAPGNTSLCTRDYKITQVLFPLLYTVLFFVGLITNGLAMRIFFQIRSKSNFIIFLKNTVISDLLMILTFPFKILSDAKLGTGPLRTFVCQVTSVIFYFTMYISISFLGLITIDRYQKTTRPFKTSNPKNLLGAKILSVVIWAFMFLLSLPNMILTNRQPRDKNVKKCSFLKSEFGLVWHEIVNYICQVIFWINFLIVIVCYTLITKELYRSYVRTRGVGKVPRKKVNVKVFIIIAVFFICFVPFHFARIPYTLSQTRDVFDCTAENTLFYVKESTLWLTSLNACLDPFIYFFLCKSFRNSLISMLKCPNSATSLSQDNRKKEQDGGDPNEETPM
The experiment is described as follows: Functional inhibition of 2-Me-S-ADP induced P2Y12 signalling (35S-GTPγS binding, cell membranes). The format is biochemical. The settings on record: 35S-GTPγS assay, membranes, EC80 concentration of 2-methyl-thio-adenosine diphosphate, 30° C. for 45 min; read-out: GTPγS (IC50 μM). How it is done:
Functional inhibition of- the P2Y12 receptor can be measured by in vitro assays using cell membranes from P2Y12 transfected CHO-cells, the methodology is indicated below.
Functional inhibition of 2-Me-S-ADP induced P2Y12 signalling: 5 μg of membranes were diluted in 200 μl of 200 mM NaCl, 1 mM MgCl2, 50 mM HEPES (pH 7.4), 0.01% BSA, 30 μg/ml saponin and 10 μM GDP. To this was added an EC80 concentration of agonist (2-methyl-thio-adenosine diphosphate), the required concentration of test compound and 0.1 μCi ^35S-GTPγS. The reaction was allowed to proceed at 30° C. for 45 min. Samples were then transferred on to GF/B filters using a cell harvester and washed with wash buffer (50 mM Tris (pH 7.4), 5 mM MgCl2, 50 mM NaCl). Filters were then covered with scintilant and counted for the amount of ^35S-GTPγS retained by the filter. Maximum activity was that determined in the presence of the agonist and minimum activity in the absence of the agonist following subtraction of the value determined for non-specific activity. The effect of compounds at various concentrations was plotted according to the equation
y=A+((B−A)/(1+((C/x)̂D)))
and IC50 estimated where A is the bottom plateau of the curve i.e. the final minimum y value B is the top of the plateau of the curve i.e. the final maximum y value C is the x value at the middle of the curve. This represents the log EC50 value when A+B=100 D is the slope factor. x is the original known x values. Y is the original known y values.
In general terms: Binding of GTPγS marks nucleotide exchange on a G protein.
Turning to `CCOC(=O)c1cc(C#N)c(N2CCC(C(=O)NS(=O)(=O)Cc3ccccc3)CC2)nc1CN1CCCCC1=O` [Example 56, Ethyl 6-{4-[(benzylsulfonyl)carbamoyl]piperidin-1-yl}-5-cyano-2-[(2-oxopiperidin-1-yl)methyl]nicotinate], the IC50 is 0.03 µM.
The result for `CCOC(=O)c1cc(C#N)c(N2CCC(C(=O)NS(=O)(=O)N(C)c3ccccc3)CC2)nc1CN1CCCC1=O` [Example 57, Ethyl 5-cyano-6-[4-({[methyl(phenyl)amino]sulfonyl}carbamoyl)piperidin-1-yl]-2-[(2-oxopyrrolidin-1-yl)methyl]nicotinate] reads 0.013 µM; that for `CCOC(=O)c1cc(C#N)c(N2CCC(C(=O)NS(=O)(=O)CC3CCC(C)CC3)CC2)nc1CN1CCCCC1=O` (stereo not drawn) [Example 58, Ethyl 5-cyano-6-[4-({[(4-methylcyclohexyl)methyl]sulfonyl}carbamoyl)piperidin-1-yl]-2-[(2-oxopiperidin-1-yl)methyl]nicotinate], 0.164 µM; that for `CCOC(=O)c1cc(C#N)c(N2CCC(C(=O)NS(=O)(=O)Cc3ccc(C(F)(F)F)cc3)CC2)nc1CN1CCCCC1=O` [Example 59, Ethyl 5-cyano-2-[(2-oxopiperidin-1-yl)methyl]-6-[4-({[4-(trifluoromethyl)benzyl]sulfonyl}carbamoyl)piperidin-1-yl]nicotinate], 0.029 µM.
The result for `CCOC(=O)c1cc(C#N)c(N2CCC(C(=O)NS(=O)(=O)CC3CCCC3)CC2)nc1CN1CCCCC1=O` [Example 60, Ethyl 5-cyano-6-(4-{[(cyclopentylmethyl)sulfonyl]carbamoyl}piperidin-1-yl)-2-[(2-oxopiperidin-1-yl)methyl]nicotinate] reads 0.111 µM.
For `CCOC(=O)c1cc(C#N)c(N2CCC(C(=O)NS(=O)(=O)CC3CCCCC3)CC2)nc1CN1CCCCC1=O` [Example 61, Ethyl 5-cyano-6-(4-{[(cyclohexylmethyl)sulfonyl]carbamoyl}piperidin-1-yl)-2-[(2-oxopiperidin-1-yl)methyl]nicotinate], the IC50 amounted to 0.061 µM.
The result for `CCOC(=O)c1cc(C#N)c(N2CCC(C(=O)NS(=O)(=O)Cc3ccc(F)cc3)CC2)nc1CN1CCCCC1=O` [Example 62, Ethyl 5-cyano-6-(4-{[(4-fluorobenzyl)sulfonyl]carbamoyl}piperidin-1-yl)-2-[(2-oxopiperidin-1-yl)methyl]nicotinate] reads 0.148 µM; that for `CCOC(=O)c1cc(C#N)c(N2CCC(C(=O)NS(=O)(=O)Cc3ccc(C)cc3)CC2)nc1CN1CCCCC1=O` [Example 63, Ethyl 5-cyano-6-(4-{[(4-methylbenzyl)sulfonyl]carbamoyl}piperidin-1-yl)-2-[(2-oxopiperidin-1-yl)methyl]nicotinate], 0.014 µM; that for `CCOC(=O)c1cc(C#N)c(N2CCC(C(=O)NS(=O)(=O)Nc3ccccc3)CC2)nc1CN1CCCCC1=O` [Example 64, Ethyl 6-{4-[(anilinosulfonyl)carbamoyl]piperidin-1-yl}-5-cyano-2-[(2-oxopiperidin-1-yl)methyl]nicotinate], 0.14 µM.
Consider `CCOC(=O)c1cc(C#N)c(N2CCC(C(=O)NS(=O)(=O)CC3CCCCC3)CC2)nc1CN1CCCC1=O` [Example 65, Ethyl 5-cyano-6-(4-{[(cyclohexylmethyl)sulfonyl]carbamoyl}piperidin-1-yl)-2-[(2-oxopyrrolidin-1-yl)methyl]nicotinate], for which the IC50 is 0.021 µM.
The result for `CCOC(=O)c1cc(C#N)c(N2CCC(C(=O)NS(=O)(=O)Cc3ccc(SC(F)(F)F)cc3)CC2)nc1CN1CCCC1=O` [Example 66, Ethyl 5-cyano-2-[(2-oxopyrrolidin-1-yl)methyl]-6-{4-[({4-[(trifluoromethyl)thio]benzyl}sulfonyl)carbamoyl]piperidin-1-yl}nicotinate] reads 0.033 µM; that for `CCOC(=O)c1cc(C#N)c(N2CCC(C(=O)NS(=O)(=O)Cc3ccc(F)cc3F)CC2)nc1CN1CCCCC1=O` [Example 67, Ethyl 5-cyano-6-(4-{[(2,4-difluorobenzyl)sulfonyl]carbamoyl}piperidin-1-yl)-2-[(2-oxopiperidin-1-yl)methyl]nicotinate], 0.02 µM.
Consider `CCOC(=O)c1cc(C#N)c(N2CCC(C(=O)NS(=O)(=O)Cc3ccc(OC)cc3)CC2)nc1CN1CCCCC1=O` [Example 68, Ethyl 5-cyano-6-(4-{[(4-methoxybenzyl)sulfonyl]carbamoyl}piperidin-1-yl)-2-[(2-oxopiperidin-1-yl)methyl]nicotinate], for which the IC50 came out at 0.024 µM.
Regarding `CCOC(=O)c1cc(C#N)c(N2CCC(C(=O)NS(=O)(=O)Cc3ccc(C(C)C)cc3)CC2)nc1CN1CCCCC1=O` [Example 69, Ethyl 5-cyano-6-(4-{[(4-isopropylbenzyl)sulfonyl]carbamoyl}piperidin-1-yl)-2-[(2-oxopiperidin-1-yl)methyl]nicotinate], the IC50 was 0.082 µM.
`CC(C)OC(=O)c1cc(C#N)c(N2CCC(C(=O)NS(=O)(=O)Cc3ccccc3)CC2)nc1CN1CCCCC1=O` [Example 70, Isopropyl 6-{4-[(benzylsulfonyl)carbamoyl]piperidin-1-yl}-5-cyano-2-[(2-oxopiperidin-1-yl)methyl]nicotinate]: the IC50 is 0.102 µM.
Take `CCOC(=O)c1cc(C#N)c(N2CCC(C(=O)NS(=O)(=O)N(C)c3ccccc3)CC2)nc1CN1CCCCC1=O` [Example 71, Ethyl 5-cyano-6-[4-({[methyl(phenyl)amino]sulfonyl}carbamoyl)piperidin-1-yl]-2-[(2-oxopiperidin-1-yl)methyl]nicotinate]: the IC50 turned out to be 0.036 µM.
The result for `CCOC(=O)c1cc(C#N)c(N2CCC(C(=O)NS(=O)(=O)CC3CCOCC3)CC2)nc1CN1CCCC1=O` [Example 72, Ethyl 5-cyano-2-[(2-oxopyrrolidin-1-yl)methyl]-6-(4-{[(tetrahydro-2H-pyran-4-ylmethyl)sulfonyl]carbamoyl}piperidin-1-yl)nicotinate] reads 0.725 µM; that for `CC(C)OC(=O)c1cc(C#N)c(N2CCC(C(=O)NS(=O)(=O)CC3CCOCC3)CC2)nc1CN1CCCC1=O` [Example 73, Isopropyl 5-cyano-2-[(2-oxopyrrolidin-1-yl)methyl]-6-(4-{[(tetrahydro-2H-pyran-4-ylmethyl)sulfonyl]carbamoyl}piperidin-1-yl)nicotinate], greater than 3.3 µM; that for `CCOC(=O)c1cc(C#N)c(N2CCC(C(=O)NS(=O)(=O)CC3CCC3)CC2)nc1CN1CCCC1=O` [Example 74, Ethyl 5-cyano-6-(4-{[(cyclobutylmethyl)sulfonyl]carbamoyl}piperidin-1-yl)-2-[(2-oxopyrrolidin-1-yl)methyl]nicotinate], 0.037 µM.
As to `CCOC(=O)c1cc(C#N)c(N2CCC(C(=O)NS(=O)(=O)Cc3ccc(OC)cc3)CC2)nc1CN1CCCC1=O` [Example 75, Ethyl 5-cyano-6-(4-{[(4-methoxybenzyl)sulfonyl]carbamoyl}piperidin-1-yl)-2-[(2-oxopyrrolidin-1-yl)methyl]nicotinate], the IC50 worked out at 0.0075 µM.
The result for `CCOC(=O)c1cc(C#N)c(N2CCC(C(=O)NS(=O)(=O)N(C)c3ccc(F)cc3)CC2)nc1CN1CCCC1=O` [Example 76, Ethyl 5-cyano-6-[4-({[(4-fluorophenyl)(methyl)amino]sulfonyl}carbamoyl)piperidin-1-yl]-2-[(2-oxopyrrolidin-1-yl)methyl]nicotinate] reads 0.0073 µM.

In general, IC50 refers to the concentration at which inhibition is half-maximal.

The record behind these values is patent publication US20080200448A1, “New Pyridine Analogues VIII 518” (ASTRAZENECA AB, priority 2007, published 2008).
